Assay results reported in PMC9241057, “Ru(II)arene(N^N bpy/phen)-based RAPTA complexes for in vitro anti-tumour activity in human glioblastoma cancer cell lines and in vivo toxicity studies in a zebrafish model” (RSC Advances, 2022).

Experiments:
T98 = assay: MTT cytotoxicity assay, T98; type: cell-based, human; conditions: 72 h incubation
Experimental: (§1) The cytotoxic activity of prepared RAPTA complexes (4a–4h) was evaluated by following the standard procedure of the MTT experiment against a series of glioblastoma cells (LN 229, T98, U87MG) in triplicate. In order to accomplish this study, cells were maintained for 72 h with complexes of various concentrations ranging from 2–160 μM, taking cisplatin as a typical positive control.[22]
(§2) RAPTA complexes were dissolved in 1% DMSO, and 0.9% NaCl aqueous solution was used to dissolve cisplatin. A cell suspension was prepared and the number of cells taken was 2.5 × 10^4 mL^−1. The cells were seeded in 96-well plates (200 μL per well) and allowed 80% confluence prior to treatment. The cells were formerly treated with various concentrations (2.5–160 μM) of complex 4a–h while the control group was treated with PBS […]. After the 72 hours of incubation, 0.5% MTT solution was added to each well (20 μL) and further incubated for 4 hours at […]. The formazan crystals that were formed were dissolved in 150 μL DMSO and then the OD was measured by a microplate reader at 540 nm. The % growth inhibition of the control and treated cells were calculated and represented as the growth inhibition percentage as explained below.% growth inhibition = 100 − [(AD × 100)/AB]where AD is the absorbance measured in wells containing the treated and control samples and AB is the measured absorbance for the wells with media and a vehicle that served as the blank. IC50 was calculated using Graphpad Prism (version 6.0) where % cell viability was plotted against drug concentration.

VEGF = VEGF Elisa test; type: cell-based, human; conditions: U87MG and T98G, 1 to 20 μM
From the text: The vascular endothelial growth factor (VEGF), formerly known as the vascular permeability factor (VPF) is a signal protein produced by many cells, which stimulates blood vessel formation. In hypoxic conditions when blood circulation is insufficient in the cells, VEGF restores the oxygen supply to tissues.[26] Proper blood supply is required for solid tumour proliferation beyond a limited size; therefore, cancers that can express VEGF are able to grow and metastasize. Two cancer cells, i.e. U87MG and T98G were incubated with increased concentrations (1 to 20 μM) of 4c and 4d and the % of inhibition of VEGF was estimated by an ELISA reader.
The capture antibody was diluted to the working concentration in PBS without the carrier protein for coating the 96-well plate. The plate was sealed and incubated overnight at room temperature. It was then aspirated and washed three times with wash buffer and blocked by adding 300 μL of reagent diluent to each well and then incubating at room temperature for a minimum of 1 h. This aspiration was repeated again and then the plate was ready for sample addition.
The cells (U87MG and T98G) were treated for 48 h and the supernatants were collected; 100 μL of these samples were added per well and incubated for 2 h at room temperature. […] The optical density of each well was measured immediately by an Elisa reader (λexc = 450 nm).

[1] = target: bovine serum albumin (BSA) (Bos taurus, UniProt P02769); assay: BSA binding study, tryptophan emission quenching; conditions: for n, number of binding sites (BSA): Scatchard equation; for kq, quenching rate constant (BSA): from KBSA and τo (1 × 10^−8 s)
Experimental: The KBSA of the complexes was obtained from Stern–Volmer plots by applying the well-known Stern–Volmer equation (Fig. S4 ^†). On the other hand, the quenching constants (kq) of 6.3 × 10^14 M^−1 s^−1 and 1.8 × 10^14 M^−1 s^−1 arising from biomolecular interactions were evaluated from KBSA and τo (1 × 10^−8 s) for the complexes 4c and 4d, correspondingly (Table S3 ^†). […]
Kapp × [Complex]50 = kEtBr × [EtBr]⋯⋯⋯(iii) […]
Stern-Volmer equation was followed for quantitative determination of the Stern-Volmer quenching constant (K SV).4 Origin (8.5) software was used to plot the fluorescence data to obtain linear plot of I0/I vs. [complex]. The value of KSV was calculated from the following […]
Where I0 = fluorescence intensity in absence of complex and I = fluorescence intensities in presence of complex of concentration [Q].
Protein binding studies 5
The main component is serum albumin proteins in drug transport and metabolism, as we all know. The interaction of the complex with […] serum albumin (BSA) was examined using a tryptophan emission quenching experiment. The association of the RAPTA complexes 4c and 4d with the protein BSA was detected using a tryptophan emission quenching assay. […]
concentrations gradually.
Origin Lab, version 8.5 was […]
equation (v) given below: […]

U87MG = assay: MTT cytotoxicity assay, U87MG; type: cell-based, human; conditions: 72 h incubation
Experimental: as §1, §2

LN229 = assay: MTT cytotoxicity assay, LN229; type: cell-based, human; conditions: 72 h incubation
Experimental: as §1, §2

T98G cell line = assay: Time-dependent ROS generation study, DCFH-DA staining; type: cell-based, human; conditions: 20 μM, 2, 6 and 10 h
Experimental: The oxidative stress was measured by the level of intracellular ROS via 2′,7′-dichlorodihydrofluorescein diacetate (DCFH-DA) staining.[24] […] Herein, cells were treated with complexes 4c and 4d with a concentration of 20 μM for 2, 6 and 10 h. We observed a higher level of […] fluorescence with the increase in the incubation time because of ROS generation (Fig. 6).
Fig. 7 Graphical representation of the average DCF fluorescence intensity in the T98G cell line upon treatment with cisplatin and complexes 4c and 4d. Incubation time: 2 h, 6 h and 10 h.
Brain cancer cells were stained with 2′,7′-dichlorofluorescein diacetate (DCFDA) to measure the reactive oxygen species (ROS) and subsequent oxidative stress generated from RAPTA complexes. They were restained by the […] fluorescence intensity generated from oxidized DCFDA. The cancer cells were cultured in a 24-well plate till 70% confluency and treatment was carried out with the aforesaid complex for 24 hours. The ROS generation mediated by the complex was evaluated using DCFDA-2′,7′-dichlorofluorescein diacetate (25 μM) staining for 30 min. The cells were washed with PBS, followed by fresh media replenishment. The images were captured under the EVOS M5000 fluorescent live cell imager (Thermo Fisher Scientific, USA).

Ct-DNA = assay: Viscosity measurement with Ct-DNA; type: binding, calf; conditions: with respect to EtBr
Experimental: The hydrodynamic study of the viscosity was conducted to screen the binding nature of the designated complexes 4c and 4d with Ct-DNA.
with respect to cisplatin.
UV–Visible, fluorescence spectroscopies and cyclic voltammetry, J. Photochem.
2. M. Shamsi-Sani, F. Hirini, SM. Abedini, M. Seddighi, Synthesis of benzimidazole
dipyridoquinoxaline and dipyridophenazine ligands as photosensitizing antennae:
curvature in Stern-Volmer plots, J. Am. Chem. Soc., 1983, 105, 1494–1498. (b) B.
hypoxia active, GSH-resistant cancer cytoselective and mitochondria-targeting
cancer stem cell therapeutic agents. Dalton Trans., 2022, 51, 5494-5514.
derivative with bovine serum albumin, J. Pharm. Anal., 2016, 6, 56–63.
6. K. Jeyalakshmi, J. Haribabu, C. Balachandran, S. Swaminathan, N. S. P.

bovine serum albumin (BSA), sequence (P02769 25-607): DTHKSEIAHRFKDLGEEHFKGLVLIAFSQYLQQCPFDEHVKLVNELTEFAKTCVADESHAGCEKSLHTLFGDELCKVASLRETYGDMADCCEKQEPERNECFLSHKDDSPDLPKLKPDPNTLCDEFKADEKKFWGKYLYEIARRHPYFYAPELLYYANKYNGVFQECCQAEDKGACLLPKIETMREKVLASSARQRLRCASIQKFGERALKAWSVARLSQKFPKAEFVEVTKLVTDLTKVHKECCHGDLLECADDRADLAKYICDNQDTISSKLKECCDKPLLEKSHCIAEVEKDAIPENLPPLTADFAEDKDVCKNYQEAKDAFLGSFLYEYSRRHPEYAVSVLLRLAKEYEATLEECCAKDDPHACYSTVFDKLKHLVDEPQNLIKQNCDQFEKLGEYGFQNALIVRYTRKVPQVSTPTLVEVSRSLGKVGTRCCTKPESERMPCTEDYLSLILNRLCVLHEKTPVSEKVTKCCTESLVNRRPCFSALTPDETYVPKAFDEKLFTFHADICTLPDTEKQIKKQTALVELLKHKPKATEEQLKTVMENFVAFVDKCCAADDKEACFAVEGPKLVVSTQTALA

Row | SMILES | IC50 (T98) [nM] | VEGF concentration with the increase in complex concentration (VEGF) | n, number of binding sites (BSA) [1] | K, binding constant with BSA ([1]; Scatchard plot) [M⁻¹] | kq, quenching rate constant (BSA) [1] [M⁻¹ s⁻¹] | IC50 (U87MG) [nM] | IC50 (LN229) [nM] | average DCF fluorescence intensity (intracellular ROS) (T98G cell line) | relative viscosity of Ct-DNA on increasing complex concentration (Ct-DNA)
1 | C1N2CN3CN1CP(C2)C3.Cc1ccc(C(C)C)cc1.F[P-](F)(F)(F)(F)F.F[P-](F)(F)(F)(F)F.[Ru+2].c1ccc(-c2ccnc3c2ccc2c(-c4ccccc4)ccnc23)cc1 [4d, [(η^6-p-Cymene)Ru^II(κ^2-N,N-4,7diphenylphenanthroline)(PTA)]·2PF6] | 940 ± 20 | constant decrease | 1 | 52500 | 1.8e+14 | 930 ± 20 | 960 ± 20 | gradual increase with respect to the incubation time | steady escalation in the relative viscosity
2 | C1N2CN3CN1CP(C2)C3.Cc1ccc(C(C)C)cc1.Cc1ccnc2c1ccc1c(C)ccnc12.F[P-](F)(F)(F)(F)F.F[P-](F)(F)(F)(F)F.[Ru+2] [4c, [(η^6-p-Cymene)Ru^II(κ^2-N,N-4,7dimethylphenanthroline)(PTA)]·2PF6] | 970 ± 20 | constant decrease | 1 | – | 6.3e+14 | 970 ± 20 | 880 ± 20 | gradual increase with respect to the incubation time | abrupt increase in viscosity up to ri = 2
